How the values were obtained:
[1] = molecular target: Aurora kinase B (Homo sapiens) (UniProt Q96GD4); conditions: Compound concentration 1000.0 nM
[2] = molecular target: Serine/threonine-protein kinase pim-3 (Homo sapiens) (UniProt Q86V86); conditions: Compound concentration 1000.0 nM
[3] = molecular target: Tyrosine-protein kinase receptor Tie-1 (Homo sapiens) (UniProt P35590); conditions: Compound concentration 1000.0 nM
[4] = test system: Receptor-type tyrosine-protein kinase FLT3 (Homo sapiens), P36888 [D835H]; conditions: Compound concentration 1000.0 nM
[5] = molecular target: Dual specificity protein kinase CLK4 (Homo sapiens) (UniProt Q9HAZ1); conditions: Compound concentration 1000.0 nM
[6] = molecular target: Casein kinase I isoform delta (Homo sapiens) (UniProt P48730); conditions: Compound concentration 1000.0 nM
[7] = molecular target: Tyrosine-protein kinase Fgr (Homo sapiens) (UniProt P09769); conditions: Compound concentration 1000.0 nM
Tyrosine-protein kinase Fgr (Homo sapiens), sequence (P09769 2-529 limits assumed): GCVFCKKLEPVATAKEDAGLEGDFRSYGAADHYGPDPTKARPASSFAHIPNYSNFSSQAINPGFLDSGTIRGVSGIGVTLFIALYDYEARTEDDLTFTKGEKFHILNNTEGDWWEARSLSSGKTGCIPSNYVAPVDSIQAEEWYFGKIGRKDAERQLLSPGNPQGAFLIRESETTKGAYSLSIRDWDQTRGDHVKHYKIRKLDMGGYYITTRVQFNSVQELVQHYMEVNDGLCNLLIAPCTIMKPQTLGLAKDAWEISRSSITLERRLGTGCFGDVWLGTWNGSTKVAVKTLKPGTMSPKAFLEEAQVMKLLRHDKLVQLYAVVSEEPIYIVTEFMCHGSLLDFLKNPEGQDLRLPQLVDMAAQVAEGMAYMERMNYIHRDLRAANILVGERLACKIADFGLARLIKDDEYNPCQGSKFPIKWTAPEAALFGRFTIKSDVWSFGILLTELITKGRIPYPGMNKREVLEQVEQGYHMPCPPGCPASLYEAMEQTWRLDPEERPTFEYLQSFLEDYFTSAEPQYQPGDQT

[8] = test system: Proto-oncogene tyrosine-protein kinase receptor Ret (Homo sapiens), P07949 [V804M]; conditions: Compound concentration 1000.0 nM
Proto-oncogene tyrosine-protein kinase receptor Ret (Homo sapiens), P07949 [V804M], sequence (P07949 whole entry V804M): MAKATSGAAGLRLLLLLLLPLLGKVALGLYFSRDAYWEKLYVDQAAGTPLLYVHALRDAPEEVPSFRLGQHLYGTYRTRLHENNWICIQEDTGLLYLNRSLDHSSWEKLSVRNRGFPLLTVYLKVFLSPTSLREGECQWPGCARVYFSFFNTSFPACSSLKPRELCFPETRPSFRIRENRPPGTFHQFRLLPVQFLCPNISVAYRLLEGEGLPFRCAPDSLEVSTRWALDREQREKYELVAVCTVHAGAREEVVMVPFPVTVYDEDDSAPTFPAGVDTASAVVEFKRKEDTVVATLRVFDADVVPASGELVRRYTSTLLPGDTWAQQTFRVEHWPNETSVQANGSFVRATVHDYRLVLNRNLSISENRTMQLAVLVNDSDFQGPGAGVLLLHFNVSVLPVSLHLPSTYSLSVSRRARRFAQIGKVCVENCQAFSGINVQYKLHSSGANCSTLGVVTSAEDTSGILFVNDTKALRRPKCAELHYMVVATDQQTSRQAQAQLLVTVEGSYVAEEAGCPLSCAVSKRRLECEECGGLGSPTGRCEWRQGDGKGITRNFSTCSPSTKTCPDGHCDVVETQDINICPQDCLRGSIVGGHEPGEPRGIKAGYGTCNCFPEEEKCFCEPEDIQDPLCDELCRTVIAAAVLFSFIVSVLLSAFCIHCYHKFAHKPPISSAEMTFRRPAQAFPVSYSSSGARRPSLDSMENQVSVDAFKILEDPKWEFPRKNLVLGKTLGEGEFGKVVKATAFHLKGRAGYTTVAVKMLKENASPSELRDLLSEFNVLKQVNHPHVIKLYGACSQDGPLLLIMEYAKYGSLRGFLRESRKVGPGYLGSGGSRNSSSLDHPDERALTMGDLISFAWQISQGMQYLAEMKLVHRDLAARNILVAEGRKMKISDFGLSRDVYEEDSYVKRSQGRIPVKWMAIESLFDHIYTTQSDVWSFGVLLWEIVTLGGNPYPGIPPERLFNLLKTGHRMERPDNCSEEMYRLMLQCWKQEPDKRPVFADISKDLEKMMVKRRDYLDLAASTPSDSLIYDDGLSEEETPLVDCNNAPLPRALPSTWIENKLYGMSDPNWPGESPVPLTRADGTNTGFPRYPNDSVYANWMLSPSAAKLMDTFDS

[9] = molecular target: Glycogen synthase kinase-3 alpha (Homo sapiens) (UniProt P49840); conditions: Compound concentration 1000.0 nM
[10] = molecular target: Mitogen-activated protein kinase 13 (Homo sapiens) (UniProt O15264); conditions: Compound concentration 1000.0 nM
[11] = molecular target: Fibroblast growth factor receptor 3 (Homo sapiens) (UniProt P22607); conditions: Compound concentration 1000.0 nM
[12] = molecular target: Tyrosine-protein kinase BTK (Homo sapiens) (UniProt Q06187); conditions: Compound concentration 1000.0 nM
[13] = molecular target: Tyrosine-protein kinase ZAP-70 (Homo sapiens) (UniProt P43403); conditions: Compound concentration 1000.0 nM
[14] = molecular target: Activin receptor type-2B (Homo sapiens) (UniProt Q13705); conditions: Compound concentration 1000.0 nM
[15] = molecular target: Myosin-IIIb (Homo sapiens) (UniProt Q8WXR4); conditions: Compound concentration 1000.0 nM
[16] = molecular target: Citron Rho-interacting kinase (Homo sapiens) (UniProt O14578); conditions: Compound concentration 1000.0 nM
[17] = molecular target: Mitogen-activated protein kinase kinase kinase 20 (Homo sapiens) (UniProt Q9NYL2); conditions: Compound concentration 1000.0 nM
[18] = molecular target: Glycogen synthase kinase-3 beta (Homo sapiens) (UniProt P49841); conditions: Compound concentration 1000.0 nM
Glycogen synthase kinase-3 beta (Homo sapiens), sequence (P49841 whole entry, looked up): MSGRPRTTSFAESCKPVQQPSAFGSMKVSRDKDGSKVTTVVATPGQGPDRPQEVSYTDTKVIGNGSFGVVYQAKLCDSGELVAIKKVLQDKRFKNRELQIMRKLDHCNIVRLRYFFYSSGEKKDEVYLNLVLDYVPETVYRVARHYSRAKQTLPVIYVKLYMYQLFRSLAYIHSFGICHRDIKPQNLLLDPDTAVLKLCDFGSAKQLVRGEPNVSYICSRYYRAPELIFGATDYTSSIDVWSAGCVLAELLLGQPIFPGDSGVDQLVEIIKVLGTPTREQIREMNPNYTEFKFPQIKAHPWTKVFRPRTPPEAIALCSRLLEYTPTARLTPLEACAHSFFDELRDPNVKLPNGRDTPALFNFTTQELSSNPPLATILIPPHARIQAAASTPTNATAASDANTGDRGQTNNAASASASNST

[19] = molecular target: Myotonin-protein kinase (Homo sapiens) (UniProt Q09013); conditions: Compound concentration 1000.0 nM
Myotonin-protein kinase (Homo sapiens), sequence (Q09013 whole entry): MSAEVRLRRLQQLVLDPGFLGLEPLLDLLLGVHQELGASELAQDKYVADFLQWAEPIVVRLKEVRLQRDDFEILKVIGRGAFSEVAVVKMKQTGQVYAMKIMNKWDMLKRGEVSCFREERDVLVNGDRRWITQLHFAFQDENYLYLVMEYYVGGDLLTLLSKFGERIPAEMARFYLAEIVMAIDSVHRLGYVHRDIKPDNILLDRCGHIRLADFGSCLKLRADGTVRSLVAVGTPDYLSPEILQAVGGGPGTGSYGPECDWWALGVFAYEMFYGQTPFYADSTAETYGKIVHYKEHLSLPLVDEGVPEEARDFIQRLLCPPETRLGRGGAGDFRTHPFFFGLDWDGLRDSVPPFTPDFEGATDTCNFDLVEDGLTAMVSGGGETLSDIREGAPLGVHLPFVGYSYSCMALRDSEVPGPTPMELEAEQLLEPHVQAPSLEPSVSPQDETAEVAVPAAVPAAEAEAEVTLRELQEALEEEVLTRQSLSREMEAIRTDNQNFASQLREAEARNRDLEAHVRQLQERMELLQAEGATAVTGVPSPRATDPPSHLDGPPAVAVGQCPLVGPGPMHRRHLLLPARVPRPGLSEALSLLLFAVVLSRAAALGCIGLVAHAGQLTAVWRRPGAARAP

[20] = molecular target: Kappa-type opioid receptor (Homo sapiens) (UniProt P41145); conditions: Compound concentration 10.0 uM
[21] = molecular target: Vascular endothelial growth factor receptor 3 (Homo sapiens) (UniProt P35916); conditions: Compound concentration 1000.0 nM
[22] = molecular target: Ephrin type-B receptor 6 (Homo sapiens) (UniProt O15197); conditions: Compound concentration 1000.0 nM
[23] = molecular target: Rho-associated protein kinase 1 (Homo sapiens) (UniProt Q13464); conditions: Compound concentration 1000.0 nM
[24] = molecular target: Mitogen-activated protein kinase kinase kinase 11 (Homo sapiens) (UniProt Q16584); conditions: Compound concentration 1000.0 nM
[25] = molecular target: Serine/threonine-protein kinase DCLK2 (Homo sapiens) (UniProt Q8N568); conditions: Compound concentration 1000.0 nM
[26] = molecular target: Homeodomain-interacting protein kinase 3 (Homo sapiens) (UniProt Q9H422); conditions: Compound concentration 1000.0 nM
Homeodomain-interacting protein kinase 3 (Homo sapiens), sequence (Q9H422 whole entry, looked up): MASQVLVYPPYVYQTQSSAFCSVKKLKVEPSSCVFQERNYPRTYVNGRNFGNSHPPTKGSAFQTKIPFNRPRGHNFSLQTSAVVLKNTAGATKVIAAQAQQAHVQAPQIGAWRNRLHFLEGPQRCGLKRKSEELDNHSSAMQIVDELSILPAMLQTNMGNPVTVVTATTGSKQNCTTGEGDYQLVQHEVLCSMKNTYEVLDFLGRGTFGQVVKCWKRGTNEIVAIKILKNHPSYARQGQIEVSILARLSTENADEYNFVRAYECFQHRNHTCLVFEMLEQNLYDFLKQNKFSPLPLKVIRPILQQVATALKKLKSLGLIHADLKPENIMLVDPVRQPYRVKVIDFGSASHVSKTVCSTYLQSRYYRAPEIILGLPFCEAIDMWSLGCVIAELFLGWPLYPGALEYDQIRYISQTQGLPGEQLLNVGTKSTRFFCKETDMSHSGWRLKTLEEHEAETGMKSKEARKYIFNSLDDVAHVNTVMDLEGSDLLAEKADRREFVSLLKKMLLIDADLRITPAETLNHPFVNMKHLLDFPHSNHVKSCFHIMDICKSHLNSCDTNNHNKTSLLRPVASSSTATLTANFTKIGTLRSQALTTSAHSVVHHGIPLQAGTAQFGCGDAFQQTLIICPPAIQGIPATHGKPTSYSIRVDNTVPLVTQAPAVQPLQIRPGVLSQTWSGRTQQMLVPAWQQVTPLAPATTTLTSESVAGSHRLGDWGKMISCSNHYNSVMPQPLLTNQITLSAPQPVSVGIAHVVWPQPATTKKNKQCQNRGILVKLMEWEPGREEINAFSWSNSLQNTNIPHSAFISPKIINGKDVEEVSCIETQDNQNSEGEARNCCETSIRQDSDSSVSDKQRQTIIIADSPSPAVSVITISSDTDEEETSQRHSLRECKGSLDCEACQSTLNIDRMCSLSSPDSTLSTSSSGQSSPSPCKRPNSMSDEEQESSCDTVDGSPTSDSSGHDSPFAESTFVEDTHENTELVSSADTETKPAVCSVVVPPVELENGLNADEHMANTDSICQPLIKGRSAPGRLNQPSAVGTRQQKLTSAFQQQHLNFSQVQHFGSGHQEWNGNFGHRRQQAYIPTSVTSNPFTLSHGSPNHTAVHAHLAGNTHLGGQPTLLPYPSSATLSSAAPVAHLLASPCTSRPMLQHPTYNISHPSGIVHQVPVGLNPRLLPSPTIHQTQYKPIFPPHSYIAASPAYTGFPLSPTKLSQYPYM

[27] = molecular target: Interleukin-1 receptor-associated kinase 4 (Homo sapiens) (UniProt Q9NWZ3); conditions: Compound concentration 1000.0 nM
[28] = molecular target: Phosphatidylinositol 4-phosphate 3-kinase C2 domain-containing subunit beta (Homo sapiens) (UniProt O00750); conditions: Compound concentration 1000.0 nM
[29] = molecular target: Hepatocyte growth factor receptor (Homo sapiens) (UniProt P08581); conditions: Compound concentration 1000.0 nM
[30] = molecular target: T1, 5-hydroxytryptamine receptor 2C (Homo sapiens) (UniProt P28335); conditions: Compound concentration 10.0 uM
T1 sequence (whole entry): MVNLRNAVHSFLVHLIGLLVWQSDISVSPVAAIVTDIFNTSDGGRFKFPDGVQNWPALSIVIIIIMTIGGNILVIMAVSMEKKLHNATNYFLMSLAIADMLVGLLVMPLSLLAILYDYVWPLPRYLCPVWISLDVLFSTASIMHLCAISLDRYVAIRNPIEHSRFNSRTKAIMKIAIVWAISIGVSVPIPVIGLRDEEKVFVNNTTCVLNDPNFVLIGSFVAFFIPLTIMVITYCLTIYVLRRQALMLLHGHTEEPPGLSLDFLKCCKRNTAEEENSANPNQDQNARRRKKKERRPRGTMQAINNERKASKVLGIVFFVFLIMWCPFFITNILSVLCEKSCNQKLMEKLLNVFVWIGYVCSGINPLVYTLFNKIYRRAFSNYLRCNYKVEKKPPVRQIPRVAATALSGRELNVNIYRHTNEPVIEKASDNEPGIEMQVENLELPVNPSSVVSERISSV

[31] = molecular target: Casein kinase II subunit alpha (Homo sapiens) (UniProt P68400); conditions: Compound concentration 1000.0 nM
[32] = molecular target: LIM domain kinase 2 (Homo sapiens) (UniProt P53671); conditions: Compound concentration 1000.0 nM
LIM domain kinase 2 (Homo sapiens), sequence (P53671 whole entry, looked up, the tested form may be a part): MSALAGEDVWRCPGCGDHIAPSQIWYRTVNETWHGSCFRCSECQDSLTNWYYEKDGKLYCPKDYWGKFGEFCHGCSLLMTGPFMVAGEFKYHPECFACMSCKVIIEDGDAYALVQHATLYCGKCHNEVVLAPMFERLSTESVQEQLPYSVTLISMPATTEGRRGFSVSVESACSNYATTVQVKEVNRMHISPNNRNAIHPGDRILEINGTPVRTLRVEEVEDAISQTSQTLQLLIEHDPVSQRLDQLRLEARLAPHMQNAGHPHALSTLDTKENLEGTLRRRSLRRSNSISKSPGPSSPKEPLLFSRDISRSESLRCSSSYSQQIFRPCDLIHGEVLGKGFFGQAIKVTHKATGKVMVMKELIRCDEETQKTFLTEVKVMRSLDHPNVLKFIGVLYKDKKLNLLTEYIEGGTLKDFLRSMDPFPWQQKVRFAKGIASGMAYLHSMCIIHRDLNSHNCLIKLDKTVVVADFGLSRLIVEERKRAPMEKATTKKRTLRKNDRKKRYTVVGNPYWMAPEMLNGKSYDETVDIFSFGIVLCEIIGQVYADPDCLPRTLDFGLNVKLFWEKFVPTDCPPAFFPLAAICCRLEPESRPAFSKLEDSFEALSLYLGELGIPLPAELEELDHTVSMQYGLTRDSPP

[33] = molecular target: Serine/threonine-protein kinase Chk1 (Homo sapiens) (UniProt O14757); conditions: Compound concentration 1000.0 nM
Serine/threonine-protein kinase Chk1 (Homo sapiens), sequence (O14757 whole entry): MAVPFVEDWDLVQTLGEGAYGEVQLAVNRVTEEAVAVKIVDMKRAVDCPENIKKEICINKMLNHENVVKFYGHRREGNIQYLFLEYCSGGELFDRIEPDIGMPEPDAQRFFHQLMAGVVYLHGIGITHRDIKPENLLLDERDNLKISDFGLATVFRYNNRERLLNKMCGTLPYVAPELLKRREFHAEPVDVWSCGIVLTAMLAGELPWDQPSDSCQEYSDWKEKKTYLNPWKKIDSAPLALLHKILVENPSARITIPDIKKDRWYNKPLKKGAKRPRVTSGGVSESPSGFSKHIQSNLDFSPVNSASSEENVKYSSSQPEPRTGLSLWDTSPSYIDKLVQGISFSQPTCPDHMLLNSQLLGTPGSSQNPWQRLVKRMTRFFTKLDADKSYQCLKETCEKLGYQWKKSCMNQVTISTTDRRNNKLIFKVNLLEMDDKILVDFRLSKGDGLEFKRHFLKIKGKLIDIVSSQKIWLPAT

[34] = molecular target: Serine/threonine-protein kinase Nek5 (Homo sapiens) (UniProt Q6P3R8); conditions: Compound concentration 1000.0 nM
[35] = molecular target: Leucine-rich repeat serine/threonine-protein kinase 2 (Homo sapiens) (UniProt Q5S007); conditions: Compound concentration 1000.0 nM
[36] = molecular target: Serine/threonine-protein kinase B-raf (Homo sapiens) (UniProt P15056); conditions: Compound concentration 1000.0 nM
[37] = molecular target: Focal adhesion kinase 1 (Homo sapiens) (UniProt Q05397); conditions: Compound concentration 1000.0 nM
[38] = molecular target: Receptor-interacting serine/threonine-protein kinase 4 (Homo sapiens) (UniProt P57078); conditions: Compound concentration 1000.0 nM
[39] = molecular target: Bone morphogenetic protein receptor type-1B (Homo sapiens) (UniProt O00238); conditions: Compound concentration 1000.0 nM
[40] = test system: Tyrosine-protein kinase ABL1 (Homo sapiens), P00519 [Y253F]; conditions: Compound concentration 1000.0 nM

N#CC1(c2ccccn2)CCN(Cc2cc(C(=O)O)c(=O)n3ccccc23)CC1 [MSD-M1PAM]
inactive: residual activity [1] 76% | residual activity [2] 100% | residual activity [3] 100% | residual activity [4] 100% | residual activity [5] 100% | residual activity [6] 96% | residual activity [7] 94% | residual activity [8] 92% | residual activity [9] 100% | residual activity [10] 100% | residual activity [11] 100% | residual activity [12] 100% | residual activity [13] 100% | residual activity [14] 97% | residual activity [15] 100% | residual activity [16] 98% | residual activity [17] 100% | residual activity [18] 100% | residual activity [19] 97% | inhibition [20] 47.3% | residual activity [21] 100% | residual activity [22] 73% | residual activity [23] 86% | residual activity [24] 100% | residual activity [25] 100% | residual activity [26] 84% | residual activity [27] 83% | residual activity [28] 97% | residual activity [29] 84% | inhibition [30] 10.5% | residual activity [31] 86% | residual activity [32] 100% | residual activity [33] 100% | residual activity [34] 100% | residual activity [35] 65% | residual activity [36] 93% | residual activity [37] 100% | residual activity [38] 80% | residual activity [39] 67% | residual activity [40] 72%

N#CC1(c2ccccn2)CCN(Cc2cc(C(=O)N3CCCC3)c(=O)n3ccccc23)CC1
inactive: residual activity [1] 92% | residual activity [2] 99% | residual activity [3] 98% | residual activity [4] 87% | residual activity [5] 97% | residual activity [6] 74% | residual activity [7] 100% | residual activity [8] 95% | residual activity [9] 72% | residual activity [10] 89% | residual activity [11] 88% | residual activity [12] 100% | residual activity [13] 100% | residual activity [14] 75% | residual activity [15] 100% | residual activity [16] 99% | residual activity [17] 95% | residual activity [18] 100% | residual activity [19] 90% | inhibition [20] 46.8% | residual activity [21] 86% | residual activity [22] 100% | residual activity [23] 100% | residual activity [24] 89% | residual activity [25] 100% | residual activity [26] 97% | residual activity [27] 100% | residual activity [28] 100% | residual activity [29] 95% | inhibition [30] -2.49% | residual activity [31] 100% | residual activity [32] 82% | residual activity [33] 90% | residual activity [34] 82% | residual activity [35] 100% | residual activity [36] 100% | residual activity [37] 89% | residual activity [38] 100% | residual activity [39] 95% | residual activity [40] 92%

Reference: ChEMBL document CHEMBL4507295 (2021)
